{"source": "patent US20120258980A1", "about": "“Antibacterial Agent for Drug-Resistant Bacteria, Method for Screening for Same, and Use of Same” (priority 2009, published 2012)", "key": {"[1]": {"tested_on": "MRSA, CA-MRSA and MSSA of Staphylococcus aureus", "test": "MIC measurement, Test Example 4 (MRSA, CA-MRSA and MSSA strains)", "type": "cell-based", "details": "Staphylococcus aureus", "procedure": "(§1) Each of the bacterial strains listed in Table 1-1 was shake-cultured at 37° C. overnight in 4 mL of a medium (Tryptical Soy Broth: TSB, product of Becton Dickinson and Company). FDA209P was used as a control.\n(§2) After completion of culturing, the resultant culture was suspended in a cation-adjusted Mueller Hinton Broth (CAMHB, product of Becton Dickinson and Company). Then, the obtained bacterial culture was adjusted in absorbance with the CAMHB so that the absorbance at 578 nm of the bacterial culture was adjusted to 0.3 measured by an absorption spectrometer. In addition, the resultant bacterial culture was 500-fold diluted with the CAMHB.\n(§3) Each of the 500-fold diluted, pre-cultured bacterial cultures was added at 50 μL/well to the CAMHB containing the quinolones and the nybomycins at various concentrations (50 μL/well), followed by statically culturing at 37° C. overnight.\n(§4) After completion of culturing, the growth of the bacteria was visually determined based on turbidity to measure MIC in each bacterial strain.\nGlycopeptides, imipenem, quinolones and nybomycins were studied for antibacterial activity against the bacterial strains listed in Table 2-1; i.e., MRSA, CA-MRSA and MSSA of Staphylococcus aureus."}, "[2]": {"tested_on": "VISA clinical isolates of MRSA (VI-MRSA) and of MSSA (VI-MSSA)", "test": "microbe, parasite or virus in culture", "type": "cell-based, Staphylococcus aureus", "procedure": "as §1, §2, §3, §4\nHere, the glycopeptides used were VCM and TEIC. The β-lactam used was OXA."}}, "data": [{"compound": "Cc1onc(-c2ccccc2)c1C(=O)N[C@@H]1C(=O)N2[C@@H]1SC(C)(C)[C@@H]2C(=O)O", "note": "[OXA, oxacillin]", "values": [{"measurement": "MIC", "setting": "[1]; ATCC 29213 / MRSA / MSSA, ATCC 29213, MSSA", "value": 0.25, "unit": "µg/mL"}, {"measurement": "MIC", "setting": "[1]; COL, MRSA", "value": "> 16", "unit": "µg/mL"}, {"measurement": "MIC", "setting": "[1]; FDA209P / MRSA / MSSA, FDA209P, MSSA", "value": "≤ 0.063", "unit": "µg/mL"}, {"measurement": "MIC", "setting": "[1]; ISA12-1, MRSA", "value": 4, "unit": "µg/mL"}, {"measurement": "MIC", "setting": "[1]; ISA12-2, MRSA", "value": 4, "unit": "µg/mL"}, {"measurement": "MIC", "setting": "[1]; ISA35-1, MRSA", "value": 4, "unit": "µg/mL"}, {"measurement": "MIC", "setting": "[1]; ISA37-1, MSSA", "value": 2, "unit": "µg/mL"}, {"measurement": "MIC", "setting": "[1]; ISA49-1, MSSA", "value": 1, "unit": "µg/mL"}, {"measurement": "MIC", "setting": "[1]; ISA51-1, MSSA", "value": 1, "unit": "µg/mL"}, {"measurement": "MIC", "setting": "[1]; ISA56-3, MRSA", "value": 8, "unit": "µg/mL"}, {"measurement": "MIC", "setting": "[1]; ISA58-1, MRSA", "value": 4, "unit": "µg/mL"}, {"measurement": "MIC", "setting": "[1]; ISA62-1, MRSA", "value": 8, "unit": "µg/mL"}, {"measurement": "MIC", "setting": "[1]; ISA73-1, MSSA", "value": 1, "unit": "µg/mL"}, {"measurement": "MIC", "setting": "[1]; KBSA32, MRSA", "value": 8, "unit": "µg/mL"}, {"measurement": "MIC", "setting": "[1]; KBSA34, MRSA", "value": 16, "unit": "µg/mL"}, {"measurement": "MIC", "setting": "[1]; KBSA72, MRSA", "value": 128, "unit": "µg/mL"}, {"measurement": "MIC", "setting": "[1]; KBSA96, MRSA", "value": 128, "unit": "µg/mL"}, {"measurement": "MIC", "setting": "[1]; KBSA171, MRSA", "value": "> 128", "unit": "µg/mL"}, {"measurement": "MIC", "setting": "[1]; KSA24, MRSA", "value": 128, "unit": "µg/mL"}, {"measurement": "MIC", "setting": "[1]; KSA31, MRSA", "value": 128, "unit": "µg/mL"}, {"measurement": "MIC", "setting": "[1]; KSA36, MRSA", "value": "> 128", "unit": "µg/mL"}, {"measurement": "MIC", "setting": "[1]; MRSA / MSSA / NCTC 8325, NCTC 8325, MSSA", "value": 1, "unit": "µg/mL"}, {"measurement": "MIC", "setting": "[1]; MRSA / MSSA / USA300, USA300 FPR3757, CA-MRSA", "value": 16, "unit": "µg/mL"}, {"measurement": "MIC", "setting": "[1]; MW2, CA-MRSA", "value": 8, "unit": "µg/mL"}, {"measurement": "MIC", "setting": "[1]; N315, MRSA", "value": 32, "unit": "µg/mL"}, {"measurement": "MIC", "setting": "[2]; Staphylococcus aureus, 99/3700-W, VI-MRSA, The United Kingdom", "value": 512, "unit": "µg/mL"}, {"measurement": "MIC", "setting": "[2]; Staphylococcus aureus, 99/3759-V, VI-MRSA, The United Kingdom", "value": 512, "unit": "µg/mL"}, {"measurement": "MIC", "setting": "[2]; Staphylococcus aureus, 28160, VI-MRSA, South African Republic", "value": 32, "unit": "µg/mL"}, {"measurement": "MIC", "setting": "[2]; Staphylococcus aureus, 98141, VI-MRSA, France", "value": "> 128", "unit": "µg/mL"}, {"measurement": "MIC", "setting": "[2]; Staphylococcus aureus, A7 (JCSC4842), VI-MRSA, Taiwan", "value": 128, "unit": "µg/mL"}, {"measurement": "MIC", "setting": "[2]; Staphylococcus aureus, AMC11094, VI-MRSA, Korea", "value": 512, "unit": "µg/mL"}, {"measurement": "MIC", "setting": "[2]; Staphylococcus aureus, B7 (JCSC4852), VI-MRSA, Taiwan", "value": 128, "unit": "µg/mL"}, {"measurement": "MIC", "setting": "[2]; Staphylococcus aureus, BR1, VI-MRSA, Brazil", "value": 256, "unit": "µg/mL"}, {"measurement": "MIC", "setting": "[2]; Staphylococcus aureus, BR2, VI-MRSA, Brazil", "value": 64, "unit": "µg/mL"}, {"measurement": "MIC", "setting": "[2]; Staphylococcus aureus, BR3, VI-MRSA, Brazil", "value": 64, "unit": "µg/mL"}, {"measurement": "MIC", "setting": "[2]; Staphylococcus aureus, BR4, VI-MRSA, Brazil", "value": 512, "unit": "µg/mL"}, {"measurement": "MIC", "setting": "[2]; Staphylococcus aureus, BR5, VI-MRSA, Brazil", "value": 512, "unit": "µg/mL"}, {"measurement": "MIC", "setting": "[2]; Staphylococcus aureus, HIP06297, VI-MRSA, America", "value": 512, "unit": "µg/mL"}, {"measurement": "MIC", "setting": "[2]; Staphylococcus aureus, HIP06854, VI-MRSA, America", "value": 128, "unit": "µg/mL"}, {"measurement": "MIC", "setting": "[2]; Staphylococcus aureus, HIP07920, VI-MRSA, America", "value": 128, "unit": "µg/mL"}, {"measurement": "MIC", "setting": "[2]; Staphylococcus aureus, HIP07930, VI-MRSA, America", "value": 32, "unit": "µg/mL"}, {"measurement": "MIC", "setting": "[2]; Staphylococcus aureus, HIP08926, VI-MRSA, America", "value": 512, "unit": "µg/mL"}, {"measurement": "MIC", "setting": "[2]; Staphylococcus aureus, HIP09143, VI-MRSA, America", "value": 512, "unit": "µg/mL"}, {"measurement": "MIC", "setting": "[2]; Staphylococcus aureus, HIP09313, VI-MRSA, America", "value": 512, "unit": "µg/mL"}, {"measurement": "MIC", "setting": "[2]; Staphylococcus aureus, HIP09433, VI-MRSA, America", "value": 256, "unit": "µg/mL"}, {"measurement": "MIC", "setting": "[2]; Staphylococcus aureus, HIP09662, VI-MRSA, America", "value": 512, "unit": "µg/mL"}, {"measurement": "MIC", "setting": "[2]; Staphylococcus aureus, HIP09735, VI-MRSA, America", "value": 512, "unit": "µg/mL"}, {"measurement": "MIC", "setting": "[2]; Staphylococcus aureus, HIP09737, VI-MSSA, America", "value": 1, "unit": "µg/mL"}, {"measurement": "MIC", "setting": "[2]; Staphylococcus aureus, HIP09740, VI-MRSA, America", "value": 512, "unit": "µg/mL"}, {"measurement": "MIC", "setting": "[2]; Staphylococcus aureus, HIP10267, VI-MRSA, America", "value": 4, "unit": "µg/mL"}, {"measurement": "MIC", "setting": "[2]; Staphylococcus aureus, HIP10540, VI-MRSA, America", "value": 64, "unit": "µg/mL"}, {"measurement": "MIC", "setting": "[2]; Staphylococcus aureus, HIP12864, VI-MRSA, America", "value": 1020, "unit": "µg/mL"}, {"measurement": "MIC", "setting": "[2]; Staphylococcus aureus, HIP13036, VI-MRSA, America", "value": 32, "unit": "µg/mL"}, {"measurement": "MIC", "setting": "[2]; Staphylococcus aureus, HIP13057, VI-MRSA, America", "value": 4, "unit": "µg/mL"}, {"measurement": "MIC", "setting": "[2]; Staphylococcus aureus, IL (HIP7737), VI-MRSA, America", "value": 64, "unit": "µg/mL"}, {"measurement": "MIC", "setting": "[2]; Staphylococcus aureus, JCSC7193, VI-MRSA, Thailand", "value": "> 128", "unit": "µg/mL"}, {"measurement": "MIC", "setting": "[2]; Staphylococcus aureus, JCSC7195, VI-MRSA, Thailand", "value": "> 128", "unit": "µg/mL"}, {"measurement": "MIC", "setting": "[2]; Staphylococcus aureus, JCSC7203, VI-MRSA, Thailand", "value": 128, "unit": "µg/mL"}, {"measurement": "MIC", "setting": "[2]; Staphylococcus aureus, LIM2, VI-MRSA, France", "value": 32, "unit": "µg/mL"}, {"measurement": "MIC", "setting": "[2]; Staphylococcus aureus, LY-1999-01, VI-MSSA, Oman", "value": 1, "unit": "µg/mL"}, {"measurement": "MIC", "setting": "[2]; Staphylococcus aureus, LY-1999-03, VI-MRSA, Oman", "value": 1020, "unit": "µg/mL"}, {"measurement": "MIC", "setting": "[2]; Staphylococcus aureus, MI (HIP5827), VI-MRSA, America", "value": 512, "unit": "µg/mL"}, {"measurement": "MIC", "setting": "[2]; Staphylococcus aureus, MRSA / MSSA / NRS 76 / VISA, NRS76, VI-MSSA, America", "value": 1, "unit": "µg/mL"}, {"measurement": "MIC", "setting": "[2]; Staphylococcus aureus, MRSA / MSSA / NRS 79 / VISA, NRS79, VI-MRSA, America", "value": 256, "unit": "µg/mL"}, {"measurement": "MIC", "setting": "[2]; Staphylococcus aureus, MRSA / MSSA / NRS 118 / VISA, NRS118, VI-MRSA, America", "value": 1020, "unit": "µg/mL"}, {"measurement": "MIC", "setting": "[2]; Staphylococcus aureus, MRSA / MSSA / NRS 126 / VISA, NRS126, VI-MRSA, America", "value": 256, "unit": "µg/mL"}, {"measurement": "MIC", "setting": "[2]; Staphylococcus aureus, Mu3, VI-MRSA, Japan", "value": 512, "unit": "µg/mL"}, {"measurement": "MIC", "setting": "[2]; Staphylococcus aureus, Mu50, VI-MRSA, Japan", "value": 512, "unit": "µg/mL"}, {"measurement": "MIC", "setting": "[2]; Staphylococcus aureus, NJ (HIP5836), VI-MRSA, America", "value": 64, "unit": "µg/mL"}, {"measurement": "MIC", "setting": "[2]; Staphylococcus aureus, P1V44, VI-MSSA, Belgium", "value": 2, "unit": "µg/mL"}, {"measurement": "MIC", "setting": "[2]; Staphylococcus aureus, PC, VI-MRSA, America", "value": 4, "unit": "µg/mL"}, {"measurement": "MIC", "setting": "[2]; Staphylococcus aureus, SA MER-S6, VI-MSSA, France", "value": 1, "unit": "µg/mL"}, {"measurement": "MIC", "setting": "[2]; Staphylococcus aureus, SA MER-S12, VI-MSSA, France", "value": 1, "unit": "µg/mL"}, {"measurement": "MIC", "setting": "[2]; Staphylococcus aureus, SA MER-S20, VI-MSSA, France", "value": 1, "unit": "µg/mL"}]}]}
